The text below walks through data of patent US4812447A, “Method for the treatment of nervous system degeneration” (City of Hope, priority 1986, dated 1989).

Where a name gives a salt, the structure may show the parent alone.

Series [1] concerns mice. The following applies: orally; cited from earlier work.
The subject of series [2] is mice. The following applies: cited from earlier work.
Series [3] deals with human complement system, C4 component. The following applies: Koo, et al., Klin. Wochnschr, 61, 715 (1983); cited from earlier work.
The conditions of series [4]: oral; cited from earlier work.
The subject of another series is NF^+ neurons. Nature of the series: Example 3: fetal mouse brain cell culture, neurofilament (NF) immunofluorescence of neurons. In kind it is cell-based, Swiss mouse. The following applies: for survival of neurons, outgrowth of neuritic processes, establishment of connections between neurons: low concentrations, explants of fetal mouse brain in culture; for optimal concentration for effects on neurons: numbers, processes, connections and staining of NF^+ neurons. The method, then:
(§1) Cultures were prepared from finely chopped, mechanically dissociated brains from 14-day old Swiss mouse embryos. Cells were plated at a density of 3×10^5 cells/cm^2 on poly-D-lysine coated glass cover slips and maintained at 37° C. in an atmosphere of 5% CO2, 80% humidity in Dulbecco-modified ME medium supplemented with 10% fetal calf serum and containing penicillin. The medium was first changed at 5 days of culture, at which time DHEA and DHEAS was added in concentrations ranging from 10^-4 M to 10^-8 M to the experimental cultures, while the control cultures received only normal medium. The supplemented and control media were changed at 7 days and on the 9th day the cultures were fixed and immunostained by the indirect immunofluorescent method of Coons with rabbit antisera to neurofilament protein, specific for neurons, and to glial fibrillary acidic protein, which is specific for glial cells. Neuronal and glial cells identified by the above procedures subsequently will be designated as NF^+ and GFAP^+ cells.
(§2) Briefly, cultures were fixed by successive incubation at room temperature with 3.7% formaldehyde and 3.7% formaldehyde containing 0.2% Triton X-100, 10 min each, and incubation at 4° C. with acetone 50%, with acetone 100% and acetone 50%--2 min each. Incubation with the above-mentioned sera anti-cell markers appropriately diluted (1/20-1/30) was carried out at room temperature for 30 min.

The next series deals with rats. The following applies: orally; cited from earlier work.
Series [5] deals with astrocytes (GFAP^+ cells). The series can be described thus: Example 3: fetal mouse brain cell culture, GFAP immunofluorescence of astrocytes / glial cells. The class given is cell-based, Swiss mouse. The following applies: for brilliance of astrocyte staining (GFAP per unit cell surface) / extent of astrocyte fiber extension / numbers of astrocytes: vs untreated cultures, GFAP staining; for development and maturation of glial processes: low concentrations, explants of fetal mouse brain in culture. As for the experimental part:
as §1, §2

A further series deals with SDAT patients. Nature of the series: Example 1: treatment of SDAT patients over 75 years old with DHEAS. In kind it is in vivo, human. The following applies: 500 mg three times per day for two months. As for the experimental part: Four patients over 75 years old, suffering from SDAT and having well-documented, progressive SDAT symptoms, are selected. Two of the patients are given 500 mg of DHEAS three times per day for two months. The other two are given a placebo.

For the compound `C[C@]12CC[C@H](O)CC1=CC[C@@H]1[C@@H]2CC[C@]2(C)C(=O)CC[C@@H]12` [DHEA, dehydroepiandrosterone], in the series with mice [1], the LD50 result is given as “greater than 10,000 mg/kg”. In the series on mice [2], the “incidence of breast cancer” value is “reduce the incidence of breast cancer” and the obesity result was “reduce obesity”. In addition, in the series on mice [2] (prolonged administration), the “apparent age after prolonged administration” value is on record as “appear to be younger”. Moreover, in series [3], the “effect on human complement system, in particular C4 component” value is on record as “known to effect the human complement system”. In addition, the “absorption in the gut” value in series [4] was “readily absorbed in the gut”. Further, in the series with NF^+ neurons (10^-5 M-10^-8 M), the “connections between neurons and between neuronal clusters” value is given as “Numerous connections appeared to be formed”; the neuronal clusters entry is “greatly enlarged neuronal clusters”; the “processes of NF^+ neurons” value is “greatly extended, thickened, and intertwined”. Further, in the series with NF^+ neurons (10^-5 M-10^-8 M, by comparison with controls, fixed on 9th day), the “numbers of NF^+ neurons” value is reported as “remarkable increases”. Further, the “brilliance of fluorescence of neurons and their processes (NF protein content)” value in the series with NF^+ neurons (10^-5 M-10^-8 M, in contrast to dull signal in controls) is reported as “in marked contrast to the rather dull fluorescent signal observed in the controls”. In addition, in the series on NF^+ neurons (experimental cultures vs controls), the “size of NF^+ neurons” value was “larger than those seen in the controls”. For the same compound, in the series with NF^+ neurons, the “survival of neurons, outgrowth of neuritic processes, establishment of connections between neurons” value was “remarkable effects in enhancing the survival of neurons” and the “optimal concentration for effects on neurons” value was 10^-7 M. The LD50 result in the series on rats is “greater than 10,000 mg/kg”. Besides, in series [5], the “brilliance of astrocyte staining (GFAP per unit cell surface)” value was “remarkable increase”; the “extent of astrocyte fiber extension” value is given as “remarkable increase”; the numbers of astrocytes result is “remarkable increase”; the “development and maturation of glial processes” value is “enhanced greatly”.

Regarding `C[C@]12CC[C@H](OS(=O)(=O)O)CC1=CC[C@@H]1[C@@H]2CC[C@]2(C)C(=O)CC[C@@H]12` [DHEAS, dehydroepiandrosterone sulfate], the LD50 result in the series on mice [1] was “greater than 10,000 mg/kg”. In addition, in the series with mice [2], the “incidence of breast cancer” value is given as “reduce the incidence of breast cancer” and the obesity entry is “reduce obesity”. For the same compound, in series [3], the “effect on human complement system, in particular C4 component” value is listed as “known to effect the human complement system”. Moreover, the “absorption in the gut” value in series [4] is “readily absorbed in the gut”. Moreover, in the series on SDAT patients (2 patients vs 2 placebo), the cognitive ability entry is given as “significant improvements”, the memory result is “significant improvements” and the speech entry is listed as “significant improvements”. Besides, the “signs of further SDAT-type deterioration” value with SDAT patients (placebo patients show continuing deterioration) is “No signs of further SDAT-type deterioration”. For the same compound, the “effects on NF^+ neurons compared with those of DHEA” value with NF^+ neurons (10^-4 M to 10^-8 M added) is given as “Effects similar to those above”. Besides, in the series on NF^+ neurons, the “survival of neurons, outgrowth of neuritic processes, establishment of connections between neurons” value was “remarkable effects in enhancing the survival of neurons” and the “optimal concentration for effects on neurons” value is 10^-8 M. The LD50 result in the series with rats is recorded as “greater than 10,000 mg/kg”. Further, in series [5], the “brilliance of astrocyte staining (GFAP per unit cell surface)” value was “remarkable increase”; the “extent of astrocyte fiber extension” value is recorded as “remarkable increase”; the numbers of astrocytes entry is “remarkable increase”; the “development and maturation of glial processes” value is “enhanced greatly”.
